Cc1cccc(C(=O)O)c1[N+](=O)[O-]
Conditions | solubility (mole fraction)
in isobutanol, 297.15 K | 0.0102
in isobutanol, 300.65 K | 0.0119
in isobutanol, 303.45 K | 0.0138
in isobutanol, 306.55 K | 0.0161
in isobutanol, 311.15 K | 0.0193
in isobutanol, 315.05 K | 0.0227
in isobutanol, 317.85 K | 0.0268
in isobutanol, 322.15 K | 0.0314
in isobutanol, 326.25 K | 0.0367
in isobutanol, 330.35 K | 0.0425
in isobutanol, 333.45 K | 0.0486
in isobutanol, 337.15 K | 0.0558
in n-butanol, 300.75 K | 0.0177
in n-butanol, 304.15 K | 0.0199
in n-butanol, 307.55 K | 0.0228
in n-butanol, 312.55 K | 0.0264
in n-butanol, 316.15 K | 0.0304
in n-butanol, 319.85 K | 0.0351
in n-butanol, 324.15 K | 0.0406
in n-butanol, 328.25 K | 0.0466
in n-butanol, 332.25 K | 0.0529
in n-butanol, 335.95 K | 0.0597
in n-butanol, 339.95 K | 0.0676
in n-butanol, 343.45 K | 0.0742
in sec-butanol, 305.05 K | 0.024
in sec-butanol, 307.65 K | 0.0272
in sec-butanol, 311.15 K | 0.0314
in sec-butanol, 315.25 K | 0.0373
in sec-butanol, 319.85 K | 0.0447
in sec-butanol, 323.95 K | 0.053
in sec-butanol, 328.85 K | 0.0622
in sec-butanol, 333.35 K | 0.0718
in sec-butanol, 337.65 K | 0.0817
in sec-butanol, 342.25 K | 0.0921
in sec-butanol, 346.25 K | 0.102
in tert-butanol, 301.35 K | 0.0307
in tert-butanol, 304.05 K | 0.0328
in tert-butanol, 306.25 K | 0.0366
in tert-butanol, 310.05 K | 0.0442
in tert-butanol, 314.75 K | 0.0531
in tert-butanol, 318.95 K | 0.0619
in tert-butanol, 323.05 K | 0.0711
in tert-butanol, 327.35 K | 0.0802
in tert-butanol, 331.45 K | 0.0898
in tert-butanol, 335.95 K | 0.0999
in tert-butanol, 340.65 K | 0.111

Cc1ccc([N+](=O)[O-])c(C(=O)O)c1
Conditions | solubility (mole fraction)
in isobutanol, 293.75 K | 0.113
in isobutanol, 299.15 K | 0.133
in isobutanol, 305.75 K | 0.153
in isobutanol, 311.15 K | 0.173
in isobutanol, 317.55 K | 0.193
in isobutanol, 322.95 K | 0.209
in isobutanol, 328.15 K | 0.227
in isobutanol, 333.65 K | 0.243
in n-butanol, 290.65 K | 0.167
in n-butanol, 292.15 K | 0.172
in n-butanol, 294.15 K | 0.183
in n-butanol, 297.75 K | 0.199
in n-butanol, 302.85 K | 0.218
in n-butanol, 307.15 K | 0.237
in n-butanol, 311.65 K | 0.256
in n-butanol, 315.15 K | 0.275
in n-butanol, 319.75 K | 0.295
in n-butanol, 323.85 K | 0.316
in n-butanol, 328.15 K | 0.338
in sec-butanol, 290.15 K | 0.185
in sec-butanol, 292.45 K | 0.199
in sec-butanol, 297.65 K | 0.225
in sec-butanol, 303.15 K | 0.253
in sec-butanol, 309.95 K | 0.28
in sec-butanol, 315.35 K | 0.305
in sec-butanol, 321.15 K | 0.329
in sec-butanol, 326.15 K | 0.352
in sec-butanol, 330.55 K | 0.372
in tert-butanol, 301.55 K | 0.255
in tert-butanol, 305.15 K | 0.274
in tert-butanol, 309.85 K | 0.295
in tert-butanol, 314.45 K | 0.318
in tert-butanol, 318.15 K | 0.341
in tert-butanol, 322.75 K | 0.366
in tert-butanol, 327.35 K | 0.392
in tert-butanol, 332.05 K | 0.418
in tert-butanol, 336.55 K | 0.445
in tert-butanol, 339.55 K | 0.473

Cc1cc(C(=O)O)ccc1[N+](=O)[O-]
Conditions | solubility (mole fraction)
in isobutanol, 306.95 K | 0.009
in isobutanol, 309.55 K | 0.0105
in isobutanol, 315.75 K | 0.0132
in isobutanol, 319.55 K | 0.0158
in isobutanol, 323.85 K | 0.0192
in isobutanol, 328.95 K | 0.0235
in isobutanol, 333.95 K | 0.0283
in isobutanol, 337.95 K | 0.0332
in isobutanol, 342.15 K | 0.0391
in isobutanol, 346.65 K | 0.0457
in n-butanol, 305.15 K | 0.013
in n-butanol, 309.55 K | 0.0153
in n-butanol, 314.95 K | 0.0177
in n-butanol, 318.35 K | 0.0201
in n-butanol, 321.35 K | 0.0228
in n-butanol, 324.35 K | 0.026
in n-butanol, 327.95 K | 0.03
in n-butanol, 332.05 K | 0.0349
in n-butanol, 336.75 K | 0.0405
in n-butanol, 341.25 K | 0.047
in n-butanol, 345.35 K | 0.0546
in sec-butanol, 304.55 K | 0.0142
in sec-butanol, 307.65 K | 0.0166
in sec-butanol, 311.55 K | 0.0199
in sec-butanol, 316.25 K | 0.0243
in sec-butanol, 321.35 K | 0.0297
in sec-butanol, 326.15 K | 0.0359
in sec-butanol, 331.15 K | 0.0428
in sec-butanol, 335.25 K | 0.05
in sec-butanol, 339.25 K | 0.0578
in sec-butanol, 343.55 K | 0.0667
in tert-butanol, 304.35 K | 0.0193
in tert-butanol, 306.95 K | 0.0229
in tert-butanol, 310.15 K | 0.0271
in tert-butanol, 314.95 K | 0.0321
in tert-butanol, 317.95 K | 0.0372
in tert-butanol, 321.65 K | 0.043
in tert-butanol, 325.85 K | 0.0493
in tert-butanol, 329.45 K | 0.0556
in tert-butanol, 333.05 K | 0.0627
in tert-butanol, 336.35 K | 0.0703
in tert-butanol, 339.65 K | 0.0791
in tert-butanol, 343.65 K | 0.0878
in tert-butanol, 345.25 K | 0.0915

From BigSolDB 2.1
